This note sets out measurements from patent publication US10005767B2, “Compositions and methods for inhibition of the JAK pathway” (Rigel Pharmaceuticals, Inc., priority 2009, dated 2018).

Bounds are passed on as bounds.

In general, IC50 refers to the midpoint of a concentration-inhibition curve.

The subject of the first test is human primary T-cells, IL-2 stimulated proliferation (JAK-1 and JAK-3 dependent; reported as JAK3 activity). Kind of test: Human primary T-cell proliferation stimulated by IL-2 (Example 3). Type of test: cell-based. Particulars: Homo sapiens, T-cell, tested under conditions described in Example 3 (IL-2 stimulated human primary T-cell proliferation); read-out: ability to inhibit JAK3 activity, IC50 range (Table V). The procedure, abridged:
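Peripheral-blood human T-cells pre-activated via TCR/CD28, IL-2-starved overnight, then cultured 72 h at 37 °C with compound in Yssel's medium containing IL-2 (80 U/mL in cell suspension). Proliferation read as viable-cell ATP by CellTiter-Glo luminescence; reduction versus control taken as JAK pathway inhibition.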
In the case of `Cc1cnc(Nc2ccc(F)c(-c3cccnc3)c2)nc1Nc1ccc2oc(=O)[nH]c2c1` [Compound I-472, 5-(2-(4-fluoro-3-(pyridin-3-yl)phenylamino)-5-methylpyrimidin-4-ylamino)benzo[d]oxazol-2(3H)-one], the IC50 was < 500 nM.
The same measure, in the same setting: then `Cc1cnc(Nc2cc(C)c(I)c(C)c2)nc1Nc1ccc2oc(=O)[nH]c2c1` [Compound I-527, 5-[2-(4-Iodo-3,5-dimethyl-phenylamino)-5-methyl-pyrimidin-4-ylamino]-3H-benzooxazol-2-one], with < 500 nM; and `CCCN1Cc2ccc(Nc3ncc(C)c(Nc4ccc5oc(=O)[nH]c5c4)n3)cc2C1` [III-6, N4-(benzo[d]oxazol-2(3H)-on-5-yl)-N2-(2-n-propylisoindolin-5-yl)-5-methylpyrimidine-2,4-diamine], with < 500 nM; and `Cc1cnc(Nc2cc(C(C)NC(C)C)cc(C(F)(F)F)c2)nc1Nc1ccc2oc(=O)[nH]c2c1` (stereo not drawn) [Compound I-473, 5-(2-(3-(1-(isopropylamino)ethyl)-5-(trifluoromethyl)phenylamino)-5-methylpyrimidin-4-ylamino)benzo[d]oxazol-2(3H)-one], with < 500 nM.
Same read-out and setting: with `Cc1cnc(Nc2cccc3c2OC(F)(F)O3)nc1Nc1ccc2oc(=O)[nH]c2c1` [IV-11, 5-[2-(2,2-Difluoro-benzo[1,3]dioxol-4-ylamino)-5-methyl-pyrimidin-4-ylamino]-3H-benzooxazol-2-one] the figure was < 500 nM; with `Cc1cnc(Nc2ccc3cnoc3c2)nc1Nc1ccc2oc(=O)[nH]c2c1` [IV-5, N4-(benzo[d]oxazol-2(3H)-on-5-yl)-N2-(1,2-benzisoxazol-6-yl)-5-methylpyrimidine-2,4-diamine], < 500 nM; with `Cc1cnc(Nc2ccc(O)cc2)nc1Nc1ccc2oc(=O)[nH]c2c1` [Compound I-425, 5-[2-(4-Hydroxy-phenylamino)-5-methyl-pyrimidin-4-ylamino]-3H-benzooxazol-2-one], < 500 nM.
Same read-out and setting: then `COc1cc(Nc2ncc(C)c(Nc3ccc4oc(=O)[nH]c4c3)n2)ccc1C(=O)NC1CC1` [Compound I-220, N-cyclopropyl-2-methoxy-4-(5-methyl-4-(2-oxo-2,3-dihydrobenzo[d]oxazol-5-ylamino)pyrimidin-2-ylamino)benzamide], with < 500 nM.
For `COc1cc(C)cc(Nc2ncc(C)c(Nc3cc(C)c4oc(=O)[nH]c4c3)n2)c1` [Compound I-428, 5-(2-(3-methoxy-5-methylphenylamino)-5-methylpyrimidin-4-ylamino)-7-methylbenzo[d]oxazol-2(3H)-one], the IC50 was < 500 nM.
On the same count and under the same terms, with `Cc1cc(Nc2ncc(C)c(Nc3ccc4oc(=O)[nH]c4c3)n2)cc(C(F)F)c1` [Compound I-237, 5-(2-(3-(difluoromethyl)-5-methylphenylamino)-5-methylpyrimidin-4-ylamino)benzo[d]oxazol-2(3H)-one] the figure was < 500 nM; with `Cc1cnc(Nc2ccc3c(c2)CCC(=O)N3)nc1Nc1ccc2oc(=O)[nH]c2c1` [IV-33, 5-(5-methyl-2-(2-oxo-1,2,3,4-tetrahydroquinolin-6-ylamino)pyrimidin-4-ylamino)benzo[d]oxazol-2(3H)-one], < 500 nM.
Regarding `COc1cc(Nc2ncc(C)c(Nc3cc(C)c4oc(=O)[nH]c4c3)n2)cc(C)c1F` [Compound I-491, 5-(2-(4-fluoro-3-methoxy-5-methylphenylamino)-5-methylpyrimidin-4-ylamino)-7-methylbenzo[d]oxazol-2(3H)-one], the half-inhibitory concentration (IC50) is < 500 nM.
Still for that read-out and setting: with `Cc1cnc(Nc2cc(C(C)N3CCCC3)cc(C(F)(F)F)c2)nc1Nc1ccc2oc(=O)[nH]c2c1` (stereo not drawn) [Compound I-463, 5-(5-methyl-2-(3-(1-(pyrrolidin-1-yl)ethyl)-5-(trifluoromethyl)phenylamino)pyrimidin-4-ylamino)benzo[d]oxazol-2(3H)-one] the figure was < 500 nM; with `Cc1cnc(Nc2ccc(N[C@H]3CCCNC3)nc2)nc1Nc1ccc2oc(=O)[nH]c2c1` [II-104, (S)-5-(5-methyl-2-(6-(piperidin-3-ylamino)pyridin-3-ylamino)pyrimidin-4-ylamino)benzo[d]oxazol-2(3H)-one], < 500 nM.
The same measure, in the same setting: then `Cc1cnc(Nc2cccc(C(C)N3CCC3)c2)nc1Nc1ccc2oc(=O)[nH]c2c1` (stereo not drawn) [Compound I-211, 5-(2-(3-(1-(azetidin-1-yl)ethyl)phenylamino)-5-methylpyrimidin-4-ylamino)benzo[d]oxazol-2(3H)-one], with < 500 nM; and `Cc1cnc(Nc2cccc(S(C)(=O)=O)c2)nc1Nc1cc(F)c2oc(=O)[nH]c2c1` [Compound I-249, 7-fluoro-5-(5-methyl-2-(3-(methylsulfonyl)phenylamino)pyrimidin-4-ylamino)benzo[d]oxazol-2(3H)-one], with < 500 nM.
For `Cc1cnc(Nc2ccc(C3NCC4CCCCC43)nc2)nc1Nc1ccc2oc(=O)[nH]c2c1` (stereo not drawn) [II-121, 5-methyl-N2-[2-(octahydroisoindol-1-yl)pyridin-5-yl]-N4-(2-oxo-2,3-dihydro-1,3-benzoxazol-5-yl)-2,4-pyrimidinediamine], the IC50 is < 500 nM.
With `Cc1cc(Nc2ncc(C)c(Nc3ccc4oc(=O)[nH]c4c3)n2)ccc1C(=O)O` [Compound I-170, 2-Methyl-4-[5-methyl-4-(2-oxo-2,3-dihydro-benzooxazol-5-ylamino)-pyrimidin-2-ylamino]-benzoic acid], the IC50 was > 10000 nM.
As to `Cc1cnc(Nc2ccc(OCCN3CCOCC3)c(Cl)c2)nc1Nc1ccc2oc(=O)[nH]c2c1` [Compound I-191, 5-{2-[3-Chloro-4-(2-morpholin-4-yl-ethoxy)-phenylamino]-5-methyl-pyrimidin-4-ylamino}-3H-benzooxazol-2-one], the IC50 was < 500 nM.

Staying with this test, now noted: tested under conditions described in Example 3 (IL-2 stimulated human primary T-cell proliferation); read-out: ability to inhibit JAK3 activity, IC50 range (Table V).
Regarding `Cc1cnc(Nc2cc(C(N)=O)cc(C(F)(F)F)c2)nc1Nc1ccc2oc(=O)[nH]c2c1` [Compound I-370, N2-(3-carboxamide-5-trifluoromethyl)phenyl-5-methyl-N4-(2-oxo-2,3-dihydro-1,3-benzoxazol-5-yl)-2,4-pyrimidinediamine], the IC50 was < 500 nM.
The same measure, in the same setting: then `CS(=O)(=O)c1ccc(Nc2ncc(F)c(Nc3ccc4[nH]c(=O)[nH]c4c3)n2)cc1` [Compound I-23, N4-(benzimidazolin-2-on-5-yl)-N2-(4-methylsulfonyl)phenyl-5-fluoropyrimidine-2,4-diamine], with > 10000 nM.
For the molecule `CC(=O)N1CCN(c2ccc(Nc3ncc(C)c(Nc4ccc5oc(=O)[nH]c5c4)n3)cc2)CC1` [Compound I-343, N2-[4-(4-acetyl)piperazino]phenyl-5-methyl-N4-(2-oxo-2,3-dihydro-1,3-benzoxazol-5-yl)-2,4-pyrimidinediamine], the IC50 is < 500 nM.
As to `Cn1c(=O)oc2cc(Nc3nc(Nc4ccc(F)c(NS(C)(=O)=O)c4)ncc3F)ccc21` [Compound I-92, N2-((4-fluoro-3-methylsulfonylamino)phenyl)-N4-(3-methyl-2-oxo-2,3-dihydrobenzo[d]oxazol-6-yl)-5-fluoropyrimidine-2,4-diamine], the IC50 was > 10000 nM.
The same measure, in the same setting: with `Cc1cnc(Nc2cccc(S(N)(=O)=O)c2)nc1Nc1ccc2oc(=O)[nH]c2c1` [Compound I-14] the figure was < 500 nM.
For `Cc1cnc(Nc2ccc(S(C)(=O)=O)cc2)nc1Nc1ccc2c(c1)oc(=O)n2C` [Compound I-66, N2-((4-methylsulfonyl)phenyl)-N4-(3-methyl-2-oxo-2,3-dihydrobenzo[d]oxazol-6-yl)-5-methylpyrimidine-2,4-diamine], the IC50 is < 500 nM.
Still for that read-out and setting: with `Cc1cnc(Nc2cccc(-c3cnco3)c2)nc1Nc1ccc2oc(=O)[nH]c2c1` [Compound I-286, 5-methyl-N2-[3-(1,3-oxazol-5-yl)]phenyl-N4-(2-oxo-2,3-dihydro-1,3-benzoxazol-5-yl)-2,4-pyrimidinediamine] the figure was < 500 nM; with `Cc1cnc(Nc2cc(F)c(F)c(F)c2)nc1Nc1ccc2oc(=O)[nH]c2c1` [Compound I-408, 5-methyl-N4-(2-oxo-2,3-dihydro-1,3-benzoxazol-5-yl)-N2-(3,4,5-trifluoro)phenyl-2,4-pyrimidinediamine], < 500 nM; with `Cc1cnc(Nc2ccc(F)c(OC(C)(C)C#N)c2)nc1Nc1ccc2oc(=O)[nH]c2c1` [Compound I-417, N2-[3-(1-cyano-1-methyl)ethoxy-4-fluoro]phenyl-5-methyl-N4-(2-oxo-2,3-dihydro-1,3-benzoxazol-5-yl)-2,4-pyrimidinediamine], < 500 nM.
The same measure, in the same setting: then `Cc1cnc(Nc2cccc(NS(C)(=O)=O)c2)nc1Nc1ccc2c(c1)n(C)c(=O)n2C` [Compound I-37, N4-(1,3-dimethylbenzimidazolin-2-on-5-yl)-N2-((3-methylsulfonylamino)phenyl)-5-methylpyrimidine-2,4-diamine], with < 500 nM.
Same read-out and setting: with `Cc1ccc(Nc2ncc(C)c(Nc3ccc4oc(=O)[nH]c4c3)n2)cc1Cl` [Compound I-364, N2-(3-chloro-4-methyl)phenyl-5-methyl-N4-(2-oxo-2,3-dihydro-1,3-benzoxazol-5-yl)-2,4-pyrimidinediamine] the figure was < 500 nM; with `COc1c(F)cc(Nc2ncc(C)c(Nc3ccc4oc(=O)[nH]c4c3)n2)cc1F` [Compound I-381, N2-(3,5-difluoro-4-methoxy)phenyl-5-methyl-N4-(2-oxo-2,3-dihydro-1,3-benzoxazol-5-yl)-2,4-pyrimidinediamine], < 500 nM.
For the molecule `Cc1cnc(Nc2ccc3c(c2)OCO3)nc1Nc1ccc2oc(=O)[nH]c2c1` [IV-35, 5-methyl-N2-(3,4-methylenedioxy)phenyl-N4-(2-oxo-2,3-dihydro-1,3-benzoxazol-5-yl)-2,4-pyrimidinediamine], the IC50 was < 500 nM.
Still for that read-out and setting: then `Cc1cnc(Nc2cccc(S(C)(=O)=O)c2)nc1Nc1ccc2[nH]c(=O)[nH]c2c1` [Compound I-22, N4-(benzimidazolin-2-on-5-yl)-N2-(3-methylsulfonyl)phenyl-5-methylpyrimidine-2,4-diamine], with < 500 nM.
